Data as given in patent publication US8299097B2, “Methods for treating inflammatory disorders” (The Brigham and Women's Hospital, Inc., priority 2008, dated 2012).

Legend:
[1] = tested on: human blood platelets; assay: Platelet activation, cytofluorographic detection of P-selectin (CD62P); format: cell-based; details: ADP 100 μM or LTE4 1 μM, 10 min
Protocol: FIG. 6. […] Each antibody (Ab) was diluted in 50 μl of sterile saline. […] 6A. PAS stains of the lungs of representative mice treated with isotype control (top) or with an anti-CD42 platelet-depleting antibody (bottom). 6B. Inflammation (top) and goblet cell metaplasia (bottom) in the lungs of mice treated with the indicated LT and antibody. A cohort of mice was treated with clopidogrel as indicated. Results in 6B are from a single experiment with 5 mice per group. […] 6C. […] Results are from a single experiment performed three times on different donors.
Platelets accumulate in the lungs of asthmatic individuals (Jeffery, P. K., et al. 1989. Am. Rev. Respir. Dis. 140:1745-1753), and are also recruited to the lungs of ovalbumin sensitized and challenged mice by an IgE-dependent mechanism (Pitchford, S. C., et al. 2008. Am. J. Respir. Crit. Care Med. 177:604-612).

[2] = molecular target: T1, human CysLT1R (Homo sapiens, UniProt Q9Y271); assay: ERK activation in CysLT1R CHO transfectants; format: cell-based
T1 construct: expressed in transfected cells
T1 sequence (Q9Y271 1-337): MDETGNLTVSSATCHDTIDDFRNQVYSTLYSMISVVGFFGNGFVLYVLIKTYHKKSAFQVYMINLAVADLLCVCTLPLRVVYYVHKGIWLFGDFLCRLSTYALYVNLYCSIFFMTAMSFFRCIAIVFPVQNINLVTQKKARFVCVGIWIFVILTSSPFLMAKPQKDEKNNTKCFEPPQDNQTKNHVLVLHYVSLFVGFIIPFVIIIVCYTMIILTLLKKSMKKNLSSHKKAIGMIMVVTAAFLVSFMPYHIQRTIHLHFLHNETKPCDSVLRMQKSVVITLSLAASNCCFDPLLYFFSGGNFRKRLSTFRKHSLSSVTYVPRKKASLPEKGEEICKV
Protocol: FIG. 1. Activation by recombinant human P2Y12 receptors in response to cys-LTs. The human P2Y12 receptor cDNA was cloned in forward and reverse orientation into the expression vector pEF1/His B and transfected into CHO cells using Fugene HD reagent. Stably-expressing clones were selected using G418 (1000 μg/ml), and expression of the construct was confirmed by cytofluorographic detection of the HIS tag. 1A. […] 1B. SDS-PAGE immunoblots showing phosphorylation of ERK2 by CHO cells stably expressing human P2Y12 receptors in reverse (negative control) or forward orientations. […] The blots were stripped and re-probed with an antibody (Ab) recognizing total ERK1 and ERK2. […] 1C. Effect of the selective P2Y12 receptor antagonist 2-MesAMP (MeS) on ligand-induced ERK phosphorylation. P2Y12 receptor expressing CHO cells were stimulated with the same doses of agonists used in 1A, in the absence or presence of 2-MesAMP (100 μM). 1D. Comparison of P2Y12 receptor-mediated responses to cys-LTs with those of recombinant human CysLT1R and CysLT2R expressed in CHO cells, and the effect of the CysLT1R antagonist MK571 (1 μM).
A P2Y12 receptor cDNA was amplified by reverse transcriptase polymerase chain reaction (RT-PCR) from RNA extracted from primary hMCs and cloned into a mammalian expression vector. Expression was confirmed by detection of a histidine (HIS) tag by flow cytometry. […]

[3] = tested on: LAD2 cells; assay: Calcium flux of LAD2 cells stimulated with LTD4 or LTE4; format: cell-based, human; details: agonists 500 nM; MK571 1 μM, 2-MesAMP 100 μM
Protocol: FIG. 2. Requirement for P2Y12 receptors in LTE4-mediated LAD2 cell activation. 2A. Calcium flux of LAD2 cells stimulated with the indicated agonists (500 nM) in the presence or absence of the P2Y12 receptor-selective antagonist 2-MeSAMP (100 μM). […] 2B. […] Cells sensitized overnight with IgE and challenged with anti-IgE were used as the positive control. 2C. […] Results in 2B and 2C are mean±SEM from three independent experiments each. 2D. Effect of shRNA-mediated knockdown of P2Y12 receptor mRNA expression by LAD2 cells.
Pre-treatment of the LAD2 cells with 2-MesAMP blocked the LTE4-mediated increment in MIP-1β production by >50% (FIG. 2B). […] To exclude potential off-target effects of the inhibitors, samples of LAD2 cells were transfected with lentiviruses encoding a P2Y12 sequence-specific shRNA, a CysLT1R-specific shRNA, or an empty vector control before stimulation. […] LTE4- and LTD4-dependent production of PGD2 were abrogated by the knockdowns of P2Y12 and CysLT1R, respectively (FIG. 2C, bottom). Neither GPCR knockdown altered MIP-1β generation or PGD2 production in response to IgE-anti-IgE (FIG. 2C). LTE4-mediated MIP-1β generation (FIG. 9A) and ERK activation (FIG. 9B) were not altered by treatment of LAD2 cells with apyrase to degrade extracellular ADP.
LAD2 cells (0.5-1×10^6/sample) were washed and labeled with fura 2-AM for 30 min at 37° C. […]

Compound	CD62P expression by platelets [1]	effect on cys-LT-induced ERK activation [2]	effect on LTD4- or LTE4-mediated calcium flux [3]
CCCCC/C=C\C\C=C/C=C/C=C/[C@@H](SC[C@H](N)C(=O)O)[C@@H](O)CCCC(=O)O [LTE4]	no CD62P expression was detected		
CN(C)C(=O)CCSC(SCCC(=O)O)c1cccc(/C=C/c2ccc3ccc(Cl)cc3n2)c1 (stereo not drawn) [MK571]		susceptible	blocked calcium responses
